Results on 97 molecules are retold here after the Kinase Knowledgebase extract (Sharma et al. 2016).

A word on the IC50: it is the concentration at which inhibition is half-maximal. A high value points to a need for much substance.

For this experiment, the target named is ROCK2 (human) (UniProt O75116). Nature of the experiment: Inhibition of ROCK2 Kinase Activity.
Sequence of ROCK2 (human) (O75116 whole entry, looked up): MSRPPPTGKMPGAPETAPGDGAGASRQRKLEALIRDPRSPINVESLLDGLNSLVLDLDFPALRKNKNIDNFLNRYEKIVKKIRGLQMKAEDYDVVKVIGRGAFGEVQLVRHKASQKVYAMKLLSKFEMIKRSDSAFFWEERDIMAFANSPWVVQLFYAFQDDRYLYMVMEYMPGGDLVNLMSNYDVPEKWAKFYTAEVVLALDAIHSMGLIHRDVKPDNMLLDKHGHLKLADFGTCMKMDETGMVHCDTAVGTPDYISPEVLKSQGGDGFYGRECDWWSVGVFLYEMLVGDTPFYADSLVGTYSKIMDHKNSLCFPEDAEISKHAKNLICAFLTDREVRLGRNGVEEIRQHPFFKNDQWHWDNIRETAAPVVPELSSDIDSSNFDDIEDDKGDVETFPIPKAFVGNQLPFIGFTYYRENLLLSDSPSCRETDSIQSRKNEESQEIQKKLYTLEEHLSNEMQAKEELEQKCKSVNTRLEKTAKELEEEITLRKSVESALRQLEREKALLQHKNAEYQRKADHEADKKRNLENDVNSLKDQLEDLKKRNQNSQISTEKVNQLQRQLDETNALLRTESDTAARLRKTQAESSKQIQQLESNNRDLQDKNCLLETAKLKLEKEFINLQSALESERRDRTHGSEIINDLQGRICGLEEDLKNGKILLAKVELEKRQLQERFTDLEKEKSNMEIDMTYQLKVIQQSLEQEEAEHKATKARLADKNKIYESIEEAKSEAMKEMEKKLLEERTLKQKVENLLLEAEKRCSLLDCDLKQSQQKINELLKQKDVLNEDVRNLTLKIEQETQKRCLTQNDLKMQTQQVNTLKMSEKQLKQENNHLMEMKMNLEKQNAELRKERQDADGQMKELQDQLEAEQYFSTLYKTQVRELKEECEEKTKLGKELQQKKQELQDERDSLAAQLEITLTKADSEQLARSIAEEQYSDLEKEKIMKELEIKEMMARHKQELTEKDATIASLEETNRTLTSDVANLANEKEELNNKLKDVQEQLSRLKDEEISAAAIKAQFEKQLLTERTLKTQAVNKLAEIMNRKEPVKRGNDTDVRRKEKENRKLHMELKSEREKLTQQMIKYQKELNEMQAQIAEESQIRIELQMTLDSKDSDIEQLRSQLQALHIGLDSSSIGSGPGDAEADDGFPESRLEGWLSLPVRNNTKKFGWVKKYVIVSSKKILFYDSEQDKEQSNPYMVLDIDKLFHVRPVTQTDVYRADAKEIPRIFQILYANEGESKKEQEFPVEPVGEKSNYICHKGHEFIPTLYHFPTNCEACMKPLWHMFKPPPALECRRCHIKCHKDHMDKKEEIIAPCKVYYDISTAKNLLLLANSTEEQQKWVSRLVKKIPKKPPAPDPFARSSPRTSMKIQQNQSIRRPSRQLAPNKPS
On to `O=C(O)C(C(=O)Nc1cc2cc[nH]c(=O)c2cc1Cl)c1ccccc1` (configuration not stated), for which the IC50 was under 1 µM.

Molecule `N[C@H]1CCC[C@@H](C(=O)Nc2cc3cc[nH]c(=O)c3cc2Cl)C1` came in with an IC50 of under 1 µM.

`CS(=O)(=O)c1ccc(C(=O)Nc2cc3cc[nH]c(=O)c3cc2Cl)c(Cl)c1` showed an IC50 of under 1 µM.

For `C[C@](O)(C(=O)Nc1cc2nc[nH]c(=O)c2cc1Cl)c1ccc(Cl)cc1`, the IC50 was under 1 µM.

`O=C(Nc1cc2cc[nH]c(=O)c2cc1Cl)C1CNCC(c2ccccc2)C1` (configuration not stated) gave an IC50 of under 1 µM.

Molecule `O=C(Nc1cc2cc[nH]c(=O)c2cc1Cl)C1(Cc2ccccc2)CCNCC1` had a concentration for half-maximal inhibition (IC50) of under 1 µM.

Molecule `O=C(Nc1cc2cc[nH]c(=O)c2cc1Cl)C1(c2ccccc2)CCNC1` (configuration not stated) returned an IC50 of under 1 µM.

`N[C@H]1C[C@H](C(=O)Nc2cc3cc[nH]c(=O)c3cc2Cl)C1` came in with an IC50 of under 1 µM.

`N[C@@H](C(=O)Nc1ccc2c(=O)[nH]ccc2c1)C1CCCCC1` returned a 50% inhibitory concentration (IC50) of under 1 µM.

Molecule `O=C(CNCC1CCOCC1)Nc1cc2cc[nH]c(=O)c2cc1Cl` displayed a half-inhibitory concentration (IC50) of under 1 µM.

Molecule `COc1cc2c(=O)[nH]ccc2cc1NC(=O)[C@@H](OC)c1ccccc1` gave a concentration for half-maximal inhibition (IC50) of under 1 µM.

In turn, `CC1(C(=O)Nc2cc3cc[nH]c(=O)c3cc2Cl)CCN(S(C)(=O)=O)CC1` yielded a half-maximal inhibitory concentration (IC50) of under 1 µM.

Turning to `CCN(C)C(C(=O)Nc1cc2cc[nH]c(=O)c2cc1Cl)c1ccccc1` (configuration not stated), the half-inhibitory concentration (IC50) was under 1 µM.

`CC(C)(C(=O)Nc1cc2cc[nH]c(=O)c2cc1Cl)c1ccccc1` showed an IC50 of under 1 µM.

The molecule `CNC(C)(C)C(=O)Nc1ccc2c(=O)[nH]ccc2c1` yielded a half-inhibitory concentration (IC50) of under 1 µM.

`O=C(Nc1cc2cc[nH]c(=O)c2cc1Cl)C1(c2ccccc2)CCNCC1` came in with a 50% inhibitory concentration (IC50) of under 1 µM.

In the case of `N[C@@H](C(=O)Nc1ccc2c(=O)[nH]ccc2c1)c1ccc(Cl)cc1`, the IC50 is under 1 µM.

In turn, `N[C@H]1CC[C@](C(=O)Nc2cc3cc[nH]c(=O)c3cc2Cl)(c2ccc(Cl)cc2)CC1` showed a half-maximal inhibitory concentration (IC50) of under 1 µM.

Molecule `O=C(Nc1ccc2c(=O)[nH]ccc2c1)c1cccnc1Sc1ccccc1` had a half-maximal inhibitory concentration (IC50) of under 1 µM.

In the case of `CC(C)[C@@H](O)C(=O)Nc1cc2cc[nH]c(=O)c2cc1Cl`, the IC50 is under 1 µM.

`O=C(Nc1cc2cc[nH]c(=O)c2cc1Cl)[C@H]1CNC[C@@H]1c1ccccc1` gave an IC50 of under 1 µM.

In the case of `O=C(Nc1cc2cc[nH]c(=O)c2cc1Cl)[C@H]1[C@@H]2CNC[C@@H]21`, the IC50 is under 1 µM.

In the case of `O=C(Nc1cc2cc[nH]c(=O)c2cc1Br)[C@H]1CNC[C@@H]1c1ccc(Cl)cc1`, the IC50 is under 1 µM.

For the molecule `N[C@H]1CC[C@@](C(=O)Nc2cc3cc[nH]c(=O)c3cc2Cl)(c2ccc(Cl)cc2)CC1`, the IC50 is under 1 µM.

In turn, `O=C(Nc1cc2cc[nH]c(=O)c2cc1Cl)[C@@H]1[C@@H]2CNC[C@@H]21` gave an IC50 of under 1 µM.

Molecule `O=C(Nc1cc2cc[nH]c(=O)c2cc1Cl)c1ccc2c(c1)CCNC2` returned an IC50 of under 1 µM.

As to `O=C(Nc1cc2cc[nH]c(=O)c2cc1Cl)[C@@H]1CCCNC1`, the IC50 is under 1 µM.

With `O=C(Nc1ccc2c(=O)[nH]ccc2c1)C1CNCC1c1ccc(F)cc1` (configuration not stated), the IC50 is under 1 µM.

In the case of `CN(C)CC(=O)Nc1ccc2c(=O)[nH]ccc2c1`, the IC50 was under 1 µM.

Molecule `CC(C)[C@@H](N)C(=O)Nc1ccc2c(=O)[nH]cnc2c1` showed an IC50 of under 1 µM.

Consider `N[C@H](Cc1ccccc1)C(=O)Nc1ccc2c(=O)[nH]cnc2c1`, for which the half-maximal inhibitory concentration (IC50) is under 1 µM.

Take `NCCCS(=O)(=O)c1ccc(C(=O)Nc2cc3cc[nH]c(=O)c3cc2Cl)c(Cl)c1`: the IC50 was under 1 µM.

The molecule `C[C@H]1CNCC[C@@H]1C(=O)Nc1cc2cc[nH]c(=O)c2cc1Cl` displayed an IC50 of under 1 µM.

`N[C@H]1CCC[C@H](C(=O)Nc2cc3cc[nH]c(=O)c3cc2Cl)C1` gave an IC50 of under 1 µM.

Molecule `CO[C@H](C(=O)Nc1cc2cc[nH]c(=O)c2cc1Cl)c1ccccc1` showed an IC50 of under 1 µM.

In turn, `Cc1ccc(C(=O)Nc2cc3cc[nH]c(=O)c3cc2Cl)c(Br)c1` registered an IC50 of under 1 µM.

The molecule `C[C@](O)(C(=O)Nc1ccc2c(=O)[nH]cnc2c1)c1ccc(Cl)cc1` returned a half-maximal inhibitory concentration (IC50) of under 1 µM.

As to `Cc1cc(S(C)(=O)=O)ccc1C(=O)Nc1cc2cc[nH]c(=O)c2cc1Cl`, the half-maximal inhibitory concentration (IC50) is under 1 µM.

`O=C(Nc1ccc2c(=O)[nH]ccc2c1)c1cccs1` yielded an IC50 of under 1 µM.

Molecule `O=C(Nc1ccc2c(=O)[nH]cnc2c1)C1CCCNC1` (configuration not stated) had an IC50 of under 1 µM.

`CC(C)C(C(=O)Nc1cc2cc[nH]c(=O)c2cc1Cl)c1ccc(Cl)cc1` (configuration not stated) came in with a 50% inhibitory concentration (IC50) of under 1 µM.

In the case of `CO[C@@H](C(=O)Nc1cc2cc[nH]c(=O)c2cc1Cl)c1ccccc1`, the IC50 is under 1 µM.

In the case of `O=C(CNCc1ccccc1)Nc1ccc2c(=O)[nH]cnc2c1`, the IC50 was under 1 µM.

In the case of `N[C@H](Cc1ccc(Cl)cc1)C(=O)Nc1cc2cc[nH]c(=O)c2cc1Cl`, the half-maximal inhibitory concentration (IC50) was under 1 µM.

As for `CC(NCC1CCCCC1)C(=O)Nc1cc2cc[nH]c(=O)c2cc1Cl` (configuration not stated), the concentration for half-maximal inhibition (IC50) is under 1 µM.

In turn, `O=C(CNCc1ccccn1)Nc1cc2cc[nH]c(=O)c2cc1Cl` registered an IC50 of under 1 µM.

For the molecule `O=C(Nc1cc2cc[nH]c(=O)c2cc1Cl)[C@H]1CNC[C@@H]1c1ccc(F)cc1`, the IC50 is under 1 µM.

`CC(C)(C)NCC(=O)Nc1cc2cc[nH]c(=O)c2cc1Cl`: the IC50 was under 1 µM.

With `CC(C)(C)CC(=O)Nc1cc2cc[nH]c(=O)c2cc1Cl`, the IC50 was under 1 µM.

Take `NC(C(=O)Nc1cc2cc[nH]c(=O)c2cc1Cl)c1cccc(Cl)c1` (configuration not stated): the 50% inhibitory concentration (IC50) was under 1 µM.

Turning to `O=C(CNCC1CC1)Nc1ccc2c(=O)[nH]cnc2c1`, the half-inhibitory concentration (IC50) was under 1 µM.

`C[C@H](Oc1ccccc1)C(=O)Nc1cc2cc[nH]c(=O)c2cc1Cl`: the IC50 was under 1 µM.

Molecule `O=C(Nc1cc2cc[nH]c(=O)c2cc1Cl)c1cccc(Cl)c1Cl` had an IC50 of under 1 µM.

`O=C(Nc1cc2cc[nH]c(=O)c2cc1Cl)[C@H]1CNC[C@@H]1c1cccc(Br)c1` yielded a half-inhibitory concentration (IC50) of under 1 µM.

The molecule `CNC(C(=O)Nc1ccc2c(=O)[nH]cnc2c1)c1ccccc1` (configuration not stated) came in with a half-maximal inhibitory concentration (IC50) of under 1 µM.

For the molecule `O=C(Nc1cc2cc[nH]c(=O)c2cc1Cl)c1ccc2c(c1)CNCC2`, the half-maximal inhibitory concentration (IC50) is under 1 µM.

For `CCOCCCNC(C(=O)Nc1cc2cc[nH]c(=O)c2cc1Cl)c1ccccc1` (configuration not stated), the IC50 was under 1 µM.

As for `O=C(Nc1cc2cc[nH]c(=O)c2cc1Cl)C(=O)c1ccccc1`, the concentration for half-maximal inhibition (IC50) was under 1 µM.

`O=C(Nc1cc2cc[nH]c(=O)c2cc1Cl)c1cccc2c1CNCC2` yielded an IC50 of under 1 µM.

In turn, `N#CCC(=O)Nc1cc2cc[nH]c(=O)c2cc1Cl` displayed an IC50 of under 1 µM.

The molecule `O=C(Nc1cc2cc[nH]c(=O)c2cc1Cl)[C@@H]1CCCCN1` had a half-maximal inhibitory concentration (IC50) of under 1 µM.

On to `O=C(CN[C@]12C[C@H]3C[C@H](C[C@H](C3)C1)C2)Nc1cc2cc[nH]c(=O)c2cc1Cl`, for which the half-inhibitory concentration (IC50) is under 1 µM.

The molecule `Cc1onc(-c2ccccc2)c1C(=O)Nc1cc2cc[nH]c(=O)c2cc1Cl` yielded an IC50 of under 1 µM.

In turn, `O=C(Nc1cc2cc[nH]c(=O)c2cc1Cl)C(c1ccccc1)N1CCC(O)CC1` (configuration not stated) had an IC50 of under 1 µM.

Turning to `O=C(Nc1ccc2c(=O)[nH]ccc2c1)c1cc(Cl)sc1Cl`, the half-inhibitory concentration (IC50) is under 1 µM.

Regarding `CC(C)OC(=O)Nc1cc2cc[nH]c(=O)c2cc1Cl`, the IC50 was under 1 µM.

For `CSCCC(=O)Nc1cc2cc[nH]c(=O)c2cc1Cl`, the half-inhibitory concentration (IC50) is under 1 µM.

On to `O=C(CNCc1cccnc1)Nc1cc2cc[nH]c(=O)c2cc1Cl`, for which the IC50 is under 1 µM.

`O=C(Nc1cc2cc[nH]c(=O)c2cc1Cl)c1ccccc1Br` had an IC50 of under 1 µM.

The molecule `CS(=O)(=O)c1ccc(C(=O)Nc2cc3cc[nH]c(=O)c3cc2Cl)cc1` displayed a half-inhibitory concentration (IC50) of under 1 µM.

`O=C(Nc1ccc2c(=O)[nH]cnc2c1)C1CCN(Cc2ccccc2)CC1` gave a 50% inhibitory concentration (IC50) of under 1 µM.

As to `O=C(Nc1ccc2c(=O)[nH]ccc2c1)[C@H]1CCCNC1`, the IC50 is under 1 µM.

In the case of `O=C(Nc1cc2cc[nH]c(=O)c2cc1Cl)C(NC1CCC1)c1ccccc1` (configuration not stated), the IC50 is under 1 µM.

Molecule `CN(C)C(C(=O)Nc1cc2nc[nH]c(=O)c2cc1Cl)c1ccccc1` (configuration not stated) came in with a half-inhibitory concentration (IC50) of under 1 µM.

For the molecule `NC(C(=O)Nc1ccc2c(=O)[nH]cnc2c1)c1ccccc1` (configuration not stated), the IC50 is under 1 µM.

As for `O=C(Nc1ccc2c(=O)[nH]ccc2c1)C1(c2ccc(Cl)cc2)CCCC1`, the IC50 is under 1 µM.

Take `O=C(Nc1cc2cc[nH]c(=O)c2cc1Cl)C1(c2ccc(Cl)cc2)CCNCC1`: the half-inhibitory concentration (IC50) was under 1 µM.

For `O=C(Nc1cc2cc[nH]c(=O)c2cc1Cl)c1ccc([N+](=O)[O-])cc1C(F)(F)F`, the IC50 was under 1 µM.

Molecule `CS(=O)(=O)CC(=O)Nc1cc2cc[nH]c(=O)c2cc1Cl` registered an IC50 of under 1 µM.

Take `CC(C)(Oc1ccc(Cl)cc1)C(=O)Nc1ccc2c(=O)[nH]ccc2c1`: the half-maximal inhibitory concentration (IC50) is under 1 µM.

Molecule `O=C(Cc1ccc(F)cc1)Nc1cc2cc[nH]c(=O)c2cc1Cl` returned an IC50 of under 1 µM.

In turn, `O=C(Nc1cc2cc[nH]c(=O)c2cc1Cl)C(O)c1ccccc1` (configuration not stated) had a half-maximal inhibitory concentration (IC50) of under 1 µM.

As to `NC(Cc1ccc(F)cc1)C(=O)Nc1cc2cc[nH]c(=O)c2cc1Cl` (configuration not stated), the IC50 is under 1 µM.

Take `O=C(Nc1cc2cc[nH]c(=O)c2cc1Cl)C(NCC1CC1)c1ccccc1` (configuration not stated): the IC50 was under 1 µM.

On to `O=C(CNC1CCCc2ccccc21)Nc1cc2cc[nH]c(=O)c2cc1Cl` (configuration not stated), for which the IC50 was under 1 µM.

`O=C(Nc1cc2cc[nH]c(=O)c2cc1Cl)C1CCN(Cc2ccccc2)CC1` returned an IC50 of under 1 µM.

`O=C(Nc1cc2cc[nH]c(=O)c2cc1Cl)[C@H](O)c1cccc(Cl)c1` yielded an IC50 of under 1 µM.

Turning to `O=C(Nc1cc2cc[nH]c(=O)c2cc1Cl)c1cc([N+](=O)[O-])ccc1Cl`, the concentration for half-maximal inhibition (IC50) is under 1 µM.

With `CC(C)N1CCC(C(=O)Nc2cc3cc[nH]c(=O)c3cc2Cl)CC1`, the concentration for half-maximal inhibition (IC50) is under 1 µM.

Molecule `O=C(Nc1cc2cc[nH]c(=O)c2cc1Cl)[C@H]1CCCO1` gave a concentration for half-maximal inhibition (IC50) of under 1 µM.

Molecule `O=C(Nc1cc2cc[nH]c(=O)c2cc1Br)[C@H]1CNC[C@@H]1c1ccccc1` yielded a 50% inhibitory concentration (IC50) of under 1 µM.

In the case of `O=C(CNCc1ccncc1)Nc1cc2cc[nH]c(=O)c2cc1Cl`, the IC50 is under 1 µM.

Molecule `O=C(Nc1cc2cc[nH]c(=O)c2cc1Cl)[C@@H](O)C1CCCCC1` had an IC50 of under 1 µM.

For `CC(=O)OC(C(=O)Nc1cc2cc[nH]c(=O)c2cc1Cl)c1ccccc1` (configuration not stated), the half-maximal inhibitory concentration (IC50) was under 1 µM.

The molecule `N[C@H](CC1CCCCC1)C(=O)Nc1cc2cc[nH]c(=O)c2cc1Cl` had an IC50 of under 1 µM.

The molecule `CN(CC(=O)Nc1ccc2c(=O)[nH]cnc2c1)C1CCCCC1` yielded a concentration for half-maximal inhibition (IC50) of under 1 µM.

Turning to `CC[C@@H](C)[C@H](N)C(=O)Nc1cc2cc[nH]c(=O)c2cc1Cl`, the IC50 is under 1 µM.
